Our source for the inhibition values is patent US20230131899A1, “INHIBITORS OF MICROBIALLY INDUCED AMYLOID” (Axial Therapeutics, Inc., priority 2020, published 2023).

For the test, the target named is T1, human α-synuclein (Homo sapiens, UniProt P37840).
T1 construct: the full-length gene for untagged human α-synuclein was inserted; made in house; host or cells: E. coli BL21(DE3), plasmid derived from pT7 or pET11a
As to the kind of experiment: Cell-free Thioflavin T assay of α-synuclein aggregation (αSyn ThT Assay). In kind it is biochemical. Particulars: αSyn 50 μM. In a few lines:
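Inhibition is reported as 100% minus background-corrected ThT signal relative to vehicle wells, taken at 36, 47, 48 or 72 h or the last read. Reactions held 50 μM recombinant α-synuclein, 20-100 μM compound, 20-40 μM ThT and 1% DMSO. Incubation was at 37° C., shaken, with a glass bead.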

[1] abbreviates: class symbol, compounds 100 μM, read-out: αSyn ThT Assay % inhibition, activity range.
Setting [2] is: mean percent inhibition relative to DMSO control, compounds 100 μM, read-out: αSyn ThT Assay % inhibition.
Where [3] appears, read: mean % inhibition of αSyn aggregation relative to DMSO control, compounds at 100 μM, read-out: αSyn ThT Assay % Inhibition.
The mark [4] stands for this setting: compounds at 100 μM, class symbol, read-out: αSyn ThT Assay % Inhibition (activity range).

Like-named read-outs stand apart in the source and are kept apart here. A value given as a limit tells only on which side of the number the result lay.

As a reminder, the inhibition is the change of the read-out against control, counted positive when it falls. As to `CCNC(=O)c1c(Cc2cccc3ccccc23)c(-c2cccc(C(F)(F)F)c2)c2n(c1=O)C(C(=O)O)CN(C)S2(=O)=O` (stereo not shown) [Compound 156, 7-(ethylcarbamoyl)-2-methyl-8-(naphthalen-1-ylmethyl)-6-oxo-9-(3-(trifluoromethyl)phenyl)-3,4-dihydro-2H,6H-pyrido[1,2-e][1,2,5] thiadiazine-4-carboxylic acid 1,1-dioxide], the inhibition at 100 µM under setting [1] was > 60% and the inhibition at 100 µM under setting [2] worked out at 70%.
For `O=C(O)C1CN(Cc2ccc(CO)cc2)c2c(-c3cccc(C(F)(F)F)c3)c(Cc3cccc4ccccc34)c(Cl)c(=O)n21` (stereo not shown) [Compound 170, 6-chloro-1-(4-(hydroxymethyl)benzyl)-7-(naphthalen-1-ylmethyl)-5-oxo-8-(3-(trifluoromethyl)phenyl)-1,2,3,5-tetrahydroimidazo[1,2-a]pyridine-3-carboxylic acid], in that order: 11 to 30% and 30%.
For `CC(C)(C)c1ccc(Cc2c(-c3cccc(C(F)(F)F)c3)c3n(c(=O)c2Cl)C(C(=O)O)CN3Cc2ccccc2)cc1` (stereo not shown) [Compound 216, 1-benzyl-7-(4-(tert-butyl)benzyl)-6-chloro-5-oxo-8-(3-(trifluoromethyl)phenyl)-1,2,3,5-tetrahydroimidazo[1,2-a]pyridine-3-carboxylic acid], in that order: 31 to 60% and 46%.
In the case of `O=C(O)C1CN(Cc2cccc(O)c2)c2c(-c3cccc(C(F)(F)F)c3)c(Cc3cccc4ccccc34)c(Cl)c(=O)n21` (stereo not shown) [Compound 196, 6-chloro-1-(3-hydroxybenzyl)-7-(naphthalen-1-ylmethyl)-5-oxo-8-(3-(trifluoromethyl)phenyl)-1,2,3,5-tetrahydroimidazo[1,2-a]pyridine-3-carboxylic acid], the inhibition at 100 µM by setting is: under setting [1], > 60%; under setting [2], 61%.
Take `Nc1c(Cc2cccc3ccccc23)c(-c2cccc(C(F)(F)F)c2)c2n(c1=O)C(C(=O)O)CS2` (single isomer, unassigned) [Compound 020b, 6-amino-7-(naphthalen-1-ylmethyl)-5-oxo-8-(3-(trifluoromethyl)phenyl)-2,3-dihydro-5H-thiazolo[3,2-a]pyridine-3-carboxylic acid]: the inhibition at 100 µM runs as follows: under setting [3], 25%; under setting [4], 11 to 30%.
With `CCCCN1CC(C(=O)O)n2c(c(-c3cccc(C(F)(F)F)c3)c(Cc3cccc4ccccc34)c(C(N)=O)c2=O)S1(=O)=O` (stereo not shown) [Compound 177, 2-butyl-7-carbamoyl-8-(naphthalen-1-ylmethyl)-6-oxo-9-(3-(trifluoromethyl)phenyl)-3,4-dihydro-2H,6H-pyrido[1,2-e][1,2,5]thiadiazine-4-carboxylic acid 1,1-dioxide], the inhibition at 100 µM reads like this: under setting [1], > 60%; under setting [2], 97%.
As to `CC(C)N1CC(C(=O)O)n2c1c(-c1cccc(C(F)(F)F)c1)c(Cc1cccc3ccccc13)c(Cl)c2=O` (stereo not shown) [Compound 179, 6-chloro-1-isopropyl-7-(naphthalen-1-ylmethyl)-5-oxo-8-(3-(trifluoromethyl)phenyl)-1,2,3,5-tetrahydroimidazo[1,2-a]pyridine-3-carboxylic acid], the inhibition at 100 µM under setting [1] is > 60% and the inhibition at 100 µM under setting [2] is 72%.
In the case of `CCCN1CC(C(=O)O)n2c(c(-c3cccc(C(F)(F)F)c3)c(Cc3cccc4ccccc34)c(C(N)=O)c2=O)S1(=O)=O` (stereo not shown) [Compound 172, 7-carbamoyl-8-(naphthalen-1-ylmethyl)-6-oxo-2-propyl-9-(3-(trifluoromethyl)phenyl)-3,4-dihydro-2H,6H-pyrido[1,2-e][1,2,5]thiadiazine-4-carboxylic acid 1,1-dioxide], the inhibition at 100 µM under setting [1] was > 60% and the inhibition at 100 µM under setting [2] is 98%.
For `N#Cc1cccc(CN2CC(C(=O)O)n3c2c(-c2cccc(C(F)(F)F)c2)c(Cc2cccc4ccccc24)c(Cl)c3=O)c1` (stereo not shown) [Compound 168, 6-chloro-1-(3-cyanobenzyl)-7-(naphthalen-1-ylmethyl)-5-oxo-8-(3-(trifluoromethyl)phenyl)-1,2,3,5-tetrahydroimidazo[1,2-a]pyridine-3-carboxylic acid], in that order: 31 to 60% and 43%.
On to `Cn1c(=O)c2c(nc(CCCCCCCN3CC(C(=O)O)n4c(c(-c5cccc(C(F)(F)F)c5)c(Cc5cccc6ccccc56)cc4=O)S3(=O)=O)n2C)n(C)c1=O` (stereo not shown) [Compound 047, 8-(naphthalen-1-ylmethyl)-6-oxo-9-(3-(trifluoromethyl)phenyl)-2-(7-(1,3,7-trimethyl-2,6-dioxo-2,3,6,7-tetrahydro-1H-purin-8-yl)heptyl)-3,4-dihydro-2H,6H-pyrido[1,2-e][1,2,5]thiadiazine-4-carboxylic acid 1,1-dioxide], for which the inhibition at 100 µM under setting [3] is 21% and the inhibition at 100 µM under setting [4] is 11 to 30%.
In the case of `O=C(O)C1CN(Cc2ccccc2)c2c(-c3cccc(C(F)(F)F)c3)c(Cc3cccc4ccccc34)cc(=O)n21` (stereo not shown) [Compound 187, 1-benzyl-7-(naphthalen-1-ylmethyl)-5-oxo-8-(3-(trifluoromethyl)phenyl)-1,2,3,5-tetrahydroimidazo[1,2-a]pyridine-3-carboxylic acid], the inhibition at 100 µM was 31 to 60% under setting [1] and 45% under setting [2].
Turning to `Nc1c(Cc2ccc(N)c3ccccc23)c(-c2cccc(C(F)(F)F)c2)c2n(c1=O)C(C(=O)O)CNS2(=O)=O` (stereo not shown) [Compound 041], the inhibition at 100 µM is 25% under setting [3] and 11 to 30% under setting [4].
For `CCCN1CC(C(=O)O)n2c1c(-c1cccc(C(F)(F)F)c1)c(Cc1cccc3ccccc13)c(Cl)c2=O` (stereo not shown) [Compound 162, 6-chloro-7-(naphthalen-1-ylmethyl)-5-oxo-1-propyl-8-(3-(trifluoromethyl)phenyl)-1,2,3,5-tetrahydroimidazo[1,2-a]pyridine-3-carboxylic acid], the inhibition at 100 µM under setting [1] is > 60% and the inhibition at 100 µM under setting [2] came out at 67%.
With `O=C(O)C1CN(CCCO)S(=O)(=O)c2c(-c3cccc(C(F)(F)F)c3)c(Cc3cccc4ccccc34)cc(=O)n21` (stereo not shown) [Compound 056, 2-(3-hydroxypropyl)-8-(naphthalen-1-ylmethyl)-6-oxo-9-(3-(trifluoromethyl)phenyl)-3,4-dihydro-2H,6H-pyrido[1,2-e][1,2,5]thiadiazine-4-carboxylic acid 1,1-dioxide], the inhibition at 100 µM runs as follows: under setting [3], 59%; under setting [4], 31 to 60%.
For `Cn1c(=O)c2c(ncn2CCCCCN2CC(C(=O)O)n3c(c(-c4cccc(C(F)(F)F)c4)c(Cc4cccc5ccccc45)cc3=O)S2(=O)=O)n(C)c1=O` (stereo not shown) [Compound 034, 2-(5-(1,3-dimethyl-2,6-dioxo-1,2,3,6-tetrahydro-7H-purin-7-yl)pentyl)-8-(naphthalen-1-ylmethyl)-6-oxo-9-(3-(trifluoromethyl)phenyl)-3,4-dihydro-2H,6H-pyrido[1,2-e][1,2,5]thiadiazine-4-carboxylic acid 1,1-dioxide], in that order: 5% and -10 to 10%.
`Cn1c(=O)c2c(ncn2CCCCN2CC(C(=O)O)n3c(c(-c4cccc(C(F)(F)F)c4)c(Cc4cccc5ccccc45)cc3=O)S2(=O)=O)n(C)c1=O` (stereo not shown) [Compound 033, 2-(4-(1,3-dimethyl-2,6-dioxo-1,2,3,6-tetrahydro-7H-purin-7-yl)butyl)-8-(naphthalen-1-ylmethyl)-6-oxo-9-(3-(trifluoromethyl)phenyl)-3,4-dihydro-2H,6H-pyrido[1,2-e][1,2,5]thiadiazine-4-carboxylic acid 1,1-dioxide]: the inhibition at 100 µM by setting is: under setting [3], 6%; under setting [4], -10 to 10%.
Turning to `CCCN1CC(C(=O)O)n2c(c(-c3cccc(C(F)(F)F)c3)c(C(F)(F)c3cccc4ccccc34)cc2=O)S1(=O)=O` (stereo not shown) [Compound 138, 8-(difluoro(naphthalen-1-yl)methyl)-6-oxo-2-propyl-9-(3-(trifluoromethyl)phenyl)-3,4-dihydro-2H,6H-pyrido[1,2-e][1,2,5]thiadiazine-4-carboxylic acid 1,1-dioxide], the inhibition at 100 µM under setting [1] was > 60% and the inhibition at 100 µM under setting [2] was 74%.
With `CN1CC(C(=O)O)n2c(c(-c3cccc(C(F)(F)F)c3)c(Cc3cccc4ccccc34)c(NCc3ccccc3)c2=O)S1(=O)=O` (stereo not shown) [Compound 071], the inhibition at 100 µM runs as follows: under setting [3], 38%; under setting [4], 31 to 60%.
Turning to `CN1CC(C(=O)O)n2c(c(-c3cccc(C(F)(F)F)c3)c(Cc3cccc4ccccc34)c(C(=O)NC(C)(C)C)c2=O)S1(=O)=O` (stereo not shown) [Compound 158, 7-(tert-butylcarbamoyl)-2-methyl-8-(naphthalen-1-ylmethyl)-6-oxo-9-(3-(trifluoromethyl)phenyl)-3,4-dihydro-2H,6H-pyrido[1,2-e][1,2,5]thiadiazine-4-carboxylic acid 1,1-dioxide], the inhibition at 100 µM by setting is: under setting [1], > 60%; under setting [2], 79%.
For `O=C(O)C1CN(CCCCCCN2CC(C(=O)O)n3c2c(-c2cccc(C(F)(F)F)c2)c(Cc2cccc4ccccc24)c(Cl)c3=O)c2c(-c3cccc(C(F)(F)F)c3)c(Cc3cccc4ccccc34)c(Cl)c(=O)n21` (stereo not shown) [Compound 193, 1,1′-(hexane-1,6-diyl)bis(6-chloro-7-(naphthalen-1-ylmethyl)-5-oxo-8-(3-(trifluoromethyl)phenyl)-1,2,3,5-tetrahydroimidazo[1,2-a]pyridine-3-carboxylic acid)], in that order: > 60% and 69%.
